Drawing on US20030166687A1, “ALPHA-HYDROXY,-AMINO AND -FLUORO DERIVATIVES OF BETA-SULPHONYL HYDROXAMIC ACIDS AS MATRIX METALLOPROTEINASES INHIBITORS” (priority 2000, published 2003), this text covers Ki for nine compounds.

The structures appear in SMILES notation.

This assay deals with gelatinase. Kind of assay: MMP particle concentration fluorescence assay, gelatinase. The class given is biochemical. To be noted: in vitro; 15 min preincubation, 1-3 hours with substrate at room temperature, pH 7.5. The procedure:
Inhibitory activity is evaluated in one or more of the MMP enzymes (stromelysin, gelatinase, and collagenase) in vitro using particle concentration fluorescence assay. An inhibitor binds to MMP enzymes which prevents the degradation of a substrate by stromelysin, gelatinase, or collagenase. The substrate has attached to it a fluorescein and a biotin moiety. The intact substrate then binds to an avidin-coated particle via the biotin moiety. Once the particle is washed and dried, a fluorescent signal is generated since the fluorescent group is attached to the particle. Without an inhibitor present, the substrate is degraded by MMP enzymes and the fluorescein group is removed, therefore, no fluorescent signal can be detected. Testing compounds are dissolved in DMSO to the desired concentration, then the solutions are diluted to 1:5 with MMP buffer (50 mM Tris-HCl, pH 7.5; 150 mM NaCl; 0.02% NaN3). Serial two-fold dilutions of each compound are prepared. A concentrated, activated enzyme solution is transferred into each plate of the testing compounds, and the mixture is incubated at room temperature for 15 minutes. Thawed MMP substrate is then added into all plates, and the plates are incubated in the dark for 1-3 hours at room temperature. At this point, the substrate mixture is mixed with 0.1% avidin-coated polystyrene particles. After 15 minutes, the fluorescence values are measured following filtration and washing of the beads. Ki values are then calculated.
One may read the Ki as a dissociation constant, usually derived from enzyme kinetics or from competition with a known ligand. Low values mean tighter binding, high ones weaker binding. For the compound `COc1ccc(S(=O)(=O)CC(O)(CNC(=O)c2ccccc2)C(=O)NO)cc1` (stereo not drawn) [Example 5, N-hydroxy-2-hydroxy-2-[(4-methoxybenzenesulfonyl)methyl]-3-(N-benzenecarbonylamino)-propionamide], the affinity corresponds to a Ki of 23 nM. In other words, the double-digit nanomolar range. Next, `COc1ccc(S(=O)(=O)CC(O)(CS(=O)(=O)c2ccc(F)cc2)C(=O)NO)cc1` (stereo not drawn) [Example 2, N-hydroxy-2-hydroxy-2-[(4-methoxybenzenesulfonyl)methyl]-3-(4-fluorobenzenesulfonyl)-propionamide]: 31 nM.

In the case of `COc1ccc(S(=O)(=O)CC(O)(CNC(=O)C2CCCC2)C(=O)NO)cc1` (stereo not drawn) [Example 6, N-hydroxy-2-hydroxy-2-[(4-methoxybenzenesulfonyl)methyl]-3-[N-(cyclopentylcarbonyl)amino]-propionamide], affinity was put at a Ki of 70 nM. The value for `CCCCc1ccc(S(=O)(=O)CC(O)(CS(=O)(=O)c2ccc(OC)cc2)C(=O)NO)cc1` (stereo not drawn) [Example 3, N-hydroxy-2-hydroxy-2-[(4-methoxybenzenesulfonyl)methyl]-3-(4-n-butylbenzenesulfonyl)-propionamide] was 13 nM; that for `COc1ccc(S(=O)(=O)CC(O)(CS(=O)(=O)c2ccc(-c3ccccc3)cc2)C(=O)NO)cc1` (single isomer, unassigned) [1, Enantiomer A] was 8.5 nM. The value for `COc1ccc(S(=O)(=O)CC(O)(CS(=O)(=O)c2ccc(-c3ccccc3)cc2)C(=O)NO)cc1` (single isomer, unassigned) [1, Enantiomer B] was 0.34 nM; that for `COc1ccc(S(=O)(=O)CC(O)(CS(=O)(=O)c2ccc(-c3ccccc3)cc2)C(=O)NO)cc1` (racemic) [Example 1, N-hydroxy-2-hydroxy-2-[(4-methoxybenzenesulfonyl)methyl]-3-(4-phenylbenzenesulfonyl)-propionamide] was 1.9 nM; that for `COc1ccc(C(=O)NCC(O)(CS(=O)(=O)c2ccc(OC)cc2)C(=O)NO)cc1` (stereo not drawn) [Example 7, N-hydroxy-2-hydroxy-2-[(4-methoxybenzenesulfonyl)methyl]-3-(N-(4-methoxybenzenecarbonyl)amino)-propionamide] was 17 nM. The value for `COc1ccc(S(=O)(=O)CC(O)(CS(=O)(=O)c2ccc(OC)cc2)C(=O)NO)cc1` [Example 4, N-hydroxy-2-hydroxy-2-[(4-methoxybenzenesulfonyl)methyl]-3-(4-methoxybenzenesulfonyl)-propionamide] was 7.5 nM.
